From PubChem BioAssay (NCI) come the findings set out here.

Among the test systems are COLO 205 colon; HCC-2998 colon; HL-60(TB) leukemia; IGROV1 ovarian; M14 melanoma; SK-OV-3 ovarian; SN12C renal; U251 CNS; UACC-62 melanoma; HOP-62 NSCLC.
What all share (assay): DTP human tumour cell line panel, 48 h

Molecules are shown by their SMILES.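 Interpolation was linear, between the two tested concentrations surrounding the appropriate level; five concentrations were tested over 48 hours in 96-well plates. Abbreviation: GI50, concentration required for 50% inhibition of growth. TGI: concentration producing complete growth inhibition.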

On to `C/C1=C/C2=CC(C)C[C@@H]2C(=O)[C@]2(C)C(=O)CC(C)(C)[C@H]2CC1=O` (stereo partly drawn), for which the TGI in the assay on COLO 205 colon, in the assay with HCC-2998 colon, in the assay on HL-60(TB) leukemia, in the assay with IGROV1 ovarian, in the assay on M14 melanoma and in the assay with SK-OV-3 ovarian was > 50 µM each time. In addition, the concentration for total growth inhibition (TGI) in the assay on SN12C renal, in the assay on U251 CNS and in the assay with UACC-62 melanoma was > 50 µM each time.

As to `O=C(O)CCC(=O)c1ccc2ccc3cccc4ccc1c2c34`, the TGI with COLO 205 colon, in the assay on HCC-2998 colon, in the assay on HL-60(TB) leukemia, in the assay with HOP-62 NSCLC, in the assay on IGROV1 ovarian and with M14 melanoma was > 100 µM each time. The TGI with SK-OV-3 ovarian, with SN12C renal, with U251 CNS and in the assay on UACC-62 melanoma was > 100 µM each time.

As to `Cn1nnnc1N/N=C/c1ccccc1`, the TGI in the assay with COLO 205 colon, in the assay with HCC-2998 colon, with HL-60(TB) leukemia, in the assay on HOP-62 NSCLC, in the assay with IGROV1 ovarian and with M14 melanoma was > 10 µM in each case. Moreover, the TGI in the assay with SK-OV-3 ovarian, with SN12C renal, in the assay on U251 CNS and in the assay with UACC-62 melanoma was > 10 µM in each case.

On to `COc1cnc2c(c1)C(=O)c1c-2n(CCCN2CCC(O)CC2)c(=O)c2cc(F)ccc12`, for which the GI50 was 1.23 µM in the assay on HCC-2998 colon; 0.293 µM in the assay on HL-60(TB) leukemia; 0.142 µM with HOP-62 NSCLC; 0.301 µM in the assay with IGROV1 ovarian; 0.254 µM in the assay with M14 melanoma; 0.22 µM in the assay on SK-OV-3 ovarian. In addition, the GI50 in the assay on U251 CNS is 0.0814 µM; in the assay with UACC-62 melanoma it was 0.24 µM. Moreover, the TGI worked out at 9.98 µM with HCC-2998 colon; 0.96 µM in the assay with HL-60(TB) leukemia; 0.645 µM with HOP-62 NSCLC; 2.24 µM in the assay on IGROV1 ovarian; 1.63 µM in the assay on M14 melanoma; 0.783 µM with SK-OV-3 ovarian. Further, the TGI turned out to be 0.453 µM in the assay with U251 CNS and 0.918 µM in the assay on UACC-62 melanoma.

`COc1ccc(N=Nc2c(-c3ccccc3)nn(C(=O)CC(=O)Nc3cccc(Cl)c3)c2-c2ccccc2)cc1`: the TGI is > 100 µM with COLO 205 colon; 80.4 µM in the assay on HCC-2998 colon; > 100 µM with HL-60(TB) leukemia; > 100 µM with HOP-62 NSCLC; > 100 µM in the assay with IGROV1 ovarian; > 100 µM with SK-OV-3 ovarian. The TGI in the assay with SN12C renal, in the assay with U251 CNS and in the assay on UACC-62 melanoma was > 100 µM throughout.

Turning to `O=C(c1cc2ccccc2o1)N(Cc1ccccc1)c1ccccc1`, the TGI with COLO 205 colon is 35.4 µM; with HCC-2998 colon, 46.1 µM; in the assay on HL-60(TB) leukemia, 40.6 µM; with HOP-62 NSCLC, 71.4 µM; in the assay with IGROV1 ovarian it was > 100 µM; in the assay with M14 melanoma, 38.9 µM. The results for the TGI in the assay with SK-OV-3 ovarian, in the assay on SN12C renal and with UACC-62 melanoma were 91.2 µM, 34.7 µM and 28.1 µM, respectively.

For `CCOC(=O)/C=C/c1cc2cc(-c3csc4ccccc34)ccc2[nH]1`, the GI50 was 7.16 µM in the assay on COLO 205 colon; 14.4 µM in the assay on HCC-2998 colon; 2.43 µM in the assay with HL-60(TB) leukemia; 5.71 µM in the assay with HOP-62 NSCLC; 4.62 µM in the assay with IGROV1 ovarian; 5.42 µM in the assay on M14 melanoma. Moreover, the GI50 in the assay on SK-OV-3 ovarian is 15.2 µM; in the assay on U251 CNS, 5.49 µM; in the assay with UACC-62 melanoma, 6.76 µM. For the same compound, the TGI in the assay with COLO 205 colon is 21.3 µM; in the assay with HCC-2998 colon, 30.2 µM; in the assay on HL-60(TB) leukemia, 6.57 µM; in the assay on HOP-62 NSCLC, 24.4 µM; in the assay with IGROV1 ovarian, 17.4 µM; with M14 melanoma, 22.8 µM. Further, the TGI in the assay on SK-OV-3 ovarian worked out at 28.7 µM; with U251 CNS, 18.8 µM; in the assay on UACC-62 melanoma it was 19.6 µM.

As for `CCOC(=O)C1=C(O)CSC1=Nc1ccccc1`, the TGI in the assay with COLO 205 colon, in the assay with HCC-2998 colon, with HL-60(TB) leukemia, with HOP-62 NSCLC, with IGROV1 ovarian and with M14 melanoma was > 100 µM each time. The concentration for total growth inhibition (TGI) with SK-OV-3 ovarian, in the assay with SN12C renal and with UACC-62 melanoma was > 100 µM throughout.

On to `C1C[S][Ge]2([S]CCO1)[S]CCOCC[S]2`, for which the GI50 in the assay on COLO 205 colon, in the assay with HCC-2998 colon, in the assay on HL-60(TB) leukemia, in the assay on HOP-62 NSCLC, with IGROV1 ovarian and with M14 melanoma was > 100 µM each time. Moreover, the GI50 with SK-OV-3 ovarian, in the assay on SN12C renal and with UACC-62 melanoma was > 100 µM in each case. Moreover, the TGI with COLO 205 colon, with HCC-2998 colon, in the assay on HL-60(TB) leukemia, in the assay on HOP-62 NSCLC, in the assay with IGROV1 ovarian and in the assay with M14 melanoma was > 100 µM each time. In addition, the TGI in the assay with SK-OV-3 ovarian, with SN12C renal and with UACC-62 melanoma was > 100 µM throughout.

By TGI is commonly meant the concentration at which net growth stops. Lower therefore signals greater sensitivity of the cells. Usually GI50 stands for the concentration at which growth is held to half of that of the control.
